Results: article PMC12423301, “Astrocytic monoamine oxidase B (MAOB)–gamma-aminobutyric acid (GABA) axis as a molecular brake on repair following spinal cord injury” (Signal Transduction and Targeted Therapy, 2025)

Key:
[1] = human
Protocol: Protocol No. NB_KDS_ADP1_21 Confidential
Therapeutics in Adult Healthy Volunteers), with considering the safety factor and the result of the rat that […]
from the NOAEL calculated in the 4-week repeated toxicity test for rats and cynomolgus monkeys, the maximum recommended starting dose (MRSD) was calculated. As a result of converting 0.484 mg/kg, a value obtained by dividing this by the safety factor of 10, into a dose for a healthy adult weighing 60 kg, the MRSD was calculated to be 29.04 mg, and the initial administration dose was set to 30 mg. As a result of a single oral dose toxicity test in rats, 700 mg/kg was reported as a maximum tolerated dose (MTD), and it was calculated as 6774.2 mg/60kg when converted to a human equivalent dose (HED). Therefore, the set maximum dose is expected to be suitable in terms of safety.
Species NOAEL HED factor (Safety factor factor (Safety factor 1/30) […]
5.2.2. Duration of Dosing and Timepoints of Blood samplings/Urine collections
6 hours. In addition, considering that the Tmax of selegiline (ZELAPAR®) and safinamide (XADAGO®), which are similar drugs, are 0.75 hours and 1.83 to 2.83 hours, respectively, pharmacokinetic blood samplings before the estimated Tmax (about 2 hours) were included at 3 or more time points, and the pharmacokinetic blood […]

[2] = system: white matter stroke rat model; details: cited from earlier work
[3] = system: rat SCI model; experiment: BBB locomotor test in rat SCI model; assay type: in vivo, Sprague-Dawley (SD) rats; details: for average BBB score: at PI 10w
Protocol: For the establishment of the mouse and rat SCI models, we followed methods consistent with those of previous studies.[65]–[67] In mice, a laminectomy was performed at thoracic level 10 (T10), and self-closing forceps (11485-11, Fine Science Tools; 0.10 × 0.06 mm tip, 11 cm) were applied to the exposed spinal cord for 3 s to induce injury. In rats, a laminectomy was performed at thoracic level 9 (T9), followed by the application of the same self-closing forceps (11485-11, Fine Science Tools) for 10 s. Each “Sham” group or “SCI” group indicates animals operated by only laminectomy or SCI, respectively.
(S)-2-(((4’-Trifluoromethylbiphenyl-4-yl)methyl)amino)propanamide methane-sulfonate (KDS2010) was dissolved in distilled water. For SD rats, KDS2010 was administered via the drinking water ad libitum. […] To evaluate dose-dependent effects, additional groups received 20 mg/kg/day or 30 mg/kg/day starting at PI 2 weeks. To achieve consistent exposure across animals, we meticulously monitored the daily water intake and body weight of each rat throughout the study. As shown in the Extended Data (Supplementary Table 1), water consumption was calculated weekly via a formula based on body weight (e.g., d.w = weight × 0.09 at week 0; gradually tapering to weight × 0.075 by weeks 8–9). Importantly, all animals were confirmed to have consumed the entirety of the provided medicated water each day, ensuring full ingestion of the intended dose (10 mg/kg/day for the majority of groups, and 20/30 mg/kg/day for the dose-dependent experiments).
Behavioral test was performed every week for a total of 11 weeks (1 week before and 10 weeks after the surgical operation) to assess locomotor recovery. The BBB motor score[22] or BMS score[17] was used to evaluate the quality of hindlimb movement during open field locomotion in rats or mice, respectively. In the first recovery phase, the range of joint movement and the presence of the foot closure on the floor were checked. In the second phase, the recovery of weighted stepping was checked. In the third phase, gait coordination and tail movement were assessed. These scores are “ordinal and the magnitude of behavioral change between ranks may not be consistent,” as originally described.[17] To perform the group allocation in a blinded manner during data collection, animal preparation and behavior tests were performed by at least two different investigators.
In the BBB locomotor test with drug administration beginning at PI 2w, the animals were initially subjected to injury, and then divided into two groups at PI 2w based on the basis of similar averaged BBB scores. Subsequently, these groups were treated with either the vehicle (SCI + V) or the drug (SCI+drug) from PI 2w. To exclude incompletely generated severe rat SCI animals, we established the following criteria: a score difference of more than 4 between PI 1w and 2w, and a score exceeding 8 at PI 2w.

Compound: CS(=O)(=O)O.C[C@H](NCc1ccc(-c2ccc(C(F)(F)F)cc2)cc1)C(N)=O [KDS2010, (S)-2-(((4’-Trifluoromethylbiphenyl-4-yl)methyl)amino)propanamide methane-sulfonate]
- half-life [1]: ~36 h
- motor performance [2]: improve motor performance
- BBB locomotor scores ([3]; 10, 20, and 30 mpk from subacute phase, at 10w PI): dose-dependent improvement
- average BBB score ([3]; SCI + KDS 2w: 10 mg/kg/day in drinking water from PI 2w (subacute)): 10.62
- recovery in BBB locomotor test and ladder rung test ([3]; SCI + KDS 6w: 10 mpk from chronic phase (PI 6w)): significant motor recovery
- average BBB score ([3]; SCI + KDS 1 d/Re: 10 mpk from acute phase (PI 1 d), recovery subgroup): 15.36
- behavioral recovery in BBB locomotor test ([3]; SCI+KDS1d/No: 10 mpk from acute phase, no-recovery subgroup): did not show any behavioral recovery
- pharmacologically active dose (PAD) ([3]; SD rats, for 8 weeks): 10 mpk
